In ChEMBL document CHEMBL3763020, “Tetramethylpyrazine improves the recovery of spinal cord injury via Akt/Nrf2/HO-1 pathway” (2016):
Calls of active or inactive are those of the source. The rule behind the calls is not given here.

Legend:
[1] = test system: Rattus norvegicus; assay: Neuroprotective activity in Sprague-Dawley rat model of spinal cord injury assessed as increase in glutathione level at 200 mg/kg, ip by reduced glutathione assay in presence of 25 umol/kg of HO-1 inhibitor ZnPP; format: functional, organism-based
[2] = test system: Rattus norvegicus; assay: Neuroprotective activity in Sprague-Dawley rat model of spinal cord injury assessed as accumulation at G0/G1 phase at 200 mg/kg, ip by TUNEL staining-based flow cytometric analysis in presence of 25 umol/kg of HO-1 inhibitor ZnPP (reference value: 34.1 %); format: functional
[3] = test system: Rattus norvegicus; assay: Neuroprotective activity in Sprague-Dawley rat model of spinal cord injury assessed as decrease in activated caspase-3 level at 200 mg/kg, ip; format: functional, organism-based
[4] = test system: Rattus norvegicus; assay: Neuroprotective activity in Sprague-Dawley rat model of spinal cord injury assessed as increase in superoxide dismutase activity at 200 mg/kg, ip; format: functional, organism-based
[5] = test system: Rattus norvegicus; assay: Neuroprotective activity in Sprague-Dawley rat model of spinal cord injury assessed as decrease in Evans blue leakage in spinal cord tissue at 200 mg/kg, ip after 48 hrs in presence of 25 umol/kg of HO-1 inhibitor ZnPP; format: functional, organism-based
[6] = test system: Rattus norvegicus; assay: Neuroprotective activity in Sprague-Dawley rat model of spinal cord injury assessed as locomotor function recovery at 200 mg/kg, ip measured during 3 to 28 days in presence of Akt inhibitor LY294002; format: functional, organism-based
[7] = test system: Rattus norvegicus; assay: Induction of Nrf2 binding to HO-1 promoter in Sprague-Dawley rat model of spinal cord injury at 200 mg/kg, ip by chromatin immunoprecipitation assay; format: functional, organism-based
[8] = test system: Rattus norvegicus; assay: Neuroprotective activity in Sprague-Dawley rat model of spinal cord injury assessed as increase in HO-1 mRNA expression at 200 mg/kg, ip by real time PCR method in presence of 25 umol/kg of HO-1 inhibitor ZnPP; format: functional, organism-based
[9] = test system: Rattus norvegicus; assay: Neuroprotective activity in Sprague-Dawley rat model of spinal cord injury assessed as decrease in IL1-beta levels in spinal cord tissue at 200 mg/kg, ip by ELISA in presence of 25 umol/kg of HO-1 inhibitor ZnPP; format: functional, organism-based
[10] = test system: Rattus norvegicus; assay: Neuroprotective activity in Sprague-Dawley rat model of spinal cord injury assessed as decrease in thiobarbituric acid reactive substances level at 200 mg/kg, ip by malondialdehyde assay in presence of Akt inhibitor LY294002; format: functional, organism-based
[11] = test system: Rattus norvegicus; assay: Neuroprotective activity in Sprague-Dawley rat model of spinal cord injury assessed as increase in HO-1 mRNA expression at 200 mg/kg, ip by real time PCR method; format: functional, organism-based
[12] = test system: Rattus norvegicus; assay: Neuroprotective activity in Sprague-Dawley rat model of spinal cord injury assessed as decrease in activated caspase-9 level at 200 mg/kg, ip in presence of 25 umol/kg of HO-1 inhibitor ZnPP; format: functional, organism-based
[13] = test system: Rattus norvegicus; assay: Neuroprotective activity in Sprague-Dawley rat model of spinal cord injury assessed as increase in Nrf2 mRNA expression at 200 mg/kg, ip by real time PCR method in presence of 25 umol/kg of HO-1 inhibitor ZnPP; format: functional, organism-based
[14] = test system: Rattus norvegicus; assay: Induction of Nrf2 binding to HO-1 promoter in Sprague-Dawley rat model of spinal cord injury at 200 mg/kg, ip by chromatin immunoprecipitation assay in presence of 25 umol/kg of HO-1 inhibitor ZnPP; format: functional, organism-based
[15] = test system: Rattus norvegicus; assay: Neuroprotective activity in Sprague-Dawley rat model of spinal cord injury assessed as decrease in activated caspase-9 level at 200 mg/kg, ip; format: functional, organism-based
[16] = test system: Rattus norvegicus; assay: Neuroprotective activity in Sprague-Dawley rat model of spinal cord injury assessed as decrease in TNF-alpha levels in spinal cord tissue at 200 mg/kg, ip by ELISA in presence of 25 umol/kg of HO-1 inhibitor ZnPP; format: functional, organism-based
[17] = test system: Rattus norvegicus; assay: Neuroprotective activity in Sprague-Dawley rat model of spinal cord injury assessed as decrease in Evans blue leakage in spinal cord tissue at 200 mg/kg, ip after 24 hrs in presence of 25 umol/kg of HO-1 inhibitor ZnPP; format: functional, organism-based
[18] = test system: Rattus norvegicus; assay: Neuroprotective activity in Sprague-Dawley rat model of spinal cord injury assessed as decrease in IL-18 levels in spinal cord tissue at 200 mg/kg, ip by ELISA in presence of 25 umol/kg of HO-1 inhibitor ZnPP; format: functional, organism-based
[19] = test system: Rattus norvegicus; assay: Neuroprotective activity in Sprague-Dawley rat model of spinal cord injury assessed as increase in superoxide dismutase activity at 200 mg/kg, ip in presence of Akt inhibitor LY294002; format: functional, organism-based
[20] = test system: Rattus norvegicus; assay: Neuroprotective activity in Sprague-Dawley rat model of spinal cord injury assessed as increase in Nrf2 mRNA expression at 200 mg/kg, ip by real time PCR method; format: functional, organism-based
[21] = test system: Rattus norvegicus; assay: Neuroprotective activity in Sprague-Dawley rat model of spinal cord injury assessed as increase in glutathione level at 200 mg/kg, ip by reduced glutathione assay; format: functional, organism-based
[22] = test system: Rattus norvegicus; assay: Neuroprotective activity in Sprague-Dawley rat model of spinal cord injury assessed as decrease in Evans blue leakage in spinal cord tissue at 200 mg/kg, ip after 48 hrs; format: functional, organism-based
[23] = test system: Rattus norvegicus; assay: Neuroprotective activity in Sprague-Dawley rat model of spinal cord injury assessed as increase in superoxide dismutase activity at 200 mg/kg, ip in presence of 25 umol/kg of HO-1 inhibitor ZnPP; format: functional, organism-based
[24] = test system: Rattus norvegicus; assay: Neuroprotective activity in Sprague-Dawley rat model of spinal cord injury assessed as locomotor function recovery at 200 mg/kg, ip measured during 3 to 28 days; format: functional, organism-based
[25] = test system: Rattus norvegicus; assay: Neuroprotective activity in Sprague-Dawley rat model of spinal cord injury assessed as decrease in IL-18 levels in spinal cord tissue at 200 mg/kg, ip by ELISA; format: functional, organism-based
[26] = test system: Rattus norvegicus; assay: Neuroprotective activity in Sprague-Dawley rat model of spinal cord injury assessed as decrease in Evans blue leakage in spinal cord tissue at 200 mg/kg, ip after 24 hrs; format: functional, organism-based
[27] = test system: Rattus norvegicus; assay: Neuroprotective activity in Sprague-Dawley rat model of spinal cord injury assessed as increase in Akt phosphorylation at 200 mg/kg, ip by Western blot analysis; format: functional, organism-based
[28] = test system: Rattus norvegicus; assay: Neuroprotective activity in Sprague-Dawley rat model of spinal cord injury assessed as decrease in thiobarbituric acid reactive substances level at 200 mg/kg, ip by malondialdehyde assay in presence of 25 umol/kg of HO-1 inhibitor ZnPP; format: functional, organism-based
[29] = test system: Rattus norvegicus; assay: Neuroprotective activity in Sprague-Dawley rat model of spinal cord injury assessed as accumulation at G0/G1 phase at 200 mg/kg, ip by TUNEL staining-based flow cytometric analysis in presence of Akt inhibitor LY294002 (reference value: 34.1 %); format: functional
[30] = test system: Rattus norvegicus; assay: Neuroprotective activity in Sprague-Dawley rat model of spinal cord injury assessed as decrease in activated caspase-3 level at 200 mg/kg, ip in presence of 25 umol/kg of HO-1 inhibitor ZnPP; format: functional, organism-based
[31] = test system: Rattus norvegicus; assay: Neuroprotective activity in Sprague-Dawley rat model of spinal cord injury assessed as decrease in TNF-alpha levels in spinal cord tissue at 200 mg/kg, ip by ELISA in presence of Akt inhibitor LY294002; format: functional, organism-based
[32] = test system: Rattus norvegicus; assay: Neuroprotective activity in Sprague-Dawley rat model of spinal cord injury assessed as increase in glutathione level at 200 mg/kg, ip by reduced glutathione assay in presence of Akt inhibitor LY294002; format: functional, organism-based
[33] = test system: Rattus norvegicus; assay: Neuroprotective activity in Sprague-Dawley rat model of spinal cord injury assessed as decrease in TNF-alpha levels in spinal cord tissue at 200 mg/kg, ip by ELISA; format: functional, organism-based
[34] = test system: Rattus norvegicus; assay: Neuroprotective activity in Sprague-Dawley rat model of spinal cord injury assessed as decrease in IL1-beta levels in spinal cord tissue at 200 mg/kg, ip by ELISA; format: functional, organism-based
[35] = test system: Rattus norvegicus; assay: Neuroprotective activity in Sprague-Dawley rat model of spinal cord injury assessed as decrease in Evans blue leakage in spinal cord tissue at 200 mg/kg, ip after 48 hrs in presence of Akt inhibitor LY294002; format: functional, organism-based
[36] = test system: Rattus norvegicus; assay: Neuroprotective activity in Sprague-Dawley rat model of spinal cord injury assessed as increase in HO-1 mRNA expression at 200 mg/kg, ip by real time PCR method in presence of Akt inhibitor LY294002; format: functional, organism-based
[37] = test system: Rattus norvegicus; assay: Neuroprotective activity in Sprague-Dawley rat model of spinal cord injury assessed as increase in Nrf2 mRNA expression at 200 mg/kg, ip by real time PCR method in presence of Akt inhibitor LY294002; format: functional, organism-based
[38] = test system: Rattus norvegicus; assay: Neuroprotective activity in Sprague-Dawley rat model of spinal cord injury assessed as decrease in thiobarbituric acid reactive substances level at 200 mg/kg, ip by malondialdehyde assay; format: functional, organism-based
[39] = test system: Rattus norvegicus; assay: Induction of Nrf2 binding to HO-1 promoter in Sprague-Dawley rat model of spinal cord injury at 200 mg/kg, ip by chromatin immunoprecipitation assay in presence of Akt inhibitor LY294002; format: functional, organism-based
[40] = test system: Rattus norvegicus; assay: Neuroprotective activity in Sprague-Dawley rat model of spinal cord injury assessed as locomotor function recovery at 200 mg/kg, ip measured during 3 to 28 days in presence of 25 umol/kg of HO-1 inhibitor ZnPP; format: functional, organism-based
[41] = test system: Rattus norvegicus; assay: Neuroprotective activity in Sprague-Dawley rat model of spinal cord injury assessed as accumulation at G0/G1 phase at 200 mg/kg, ip by TUNEL staining-based flow cytometric analysis (reference value: 34.1 %); format: functional
[42] = test system: Rattus norvegicus; assay: Neuroprotective activity in Sprague-Dawley rat model of spinal cord injury assessed as decrease in Evans blue leakage in spinal cord tissue at 200 mg/kg, ip after 24 hrs in presence of Akt inhibitor LY294002; format: functional, organism-based
[43] = test system: Rattus norvegicus; assay: Neuroprotective activity in Sprague-Dawley rat model of spinal cord injury assessed as decrease in activated caspase-3 level at 200 mg/kg, ip in presence of Akt inhibitor LY294002; format: functional, organism-based
[44] = test system: Rattus norvegicus; assay: Neuroprotective activity in Sprague-Dawley rat model of spinal cord injury assessed as decrease in IL-18 levels in spinal cord tissue at 200 mg/kg, ip by ELISA in presence of Akt inhibitor LY294002; format: functional, organism-based
[45] = test system: Rattus norvegicus; assay: Neuroprotective activity in Sprague-Dawley rat model of spinal cord injury assessed as decrease in IL1-beta levels in spinal cord tissue at 200 mg/kg, ip by ELISA in presence of Akt inhibitor LY294002; format: functional, organism-based
[46] = test system: Rattus norvegicus; assay: Neuroprotective activity in Sprague-Dawley rat model of spinal cord injury assessed as increase in Akt phosphorylation at 200 mg/kg, ip by western blot analysis in presence of 25 umol/kg of HO-1 inhibitor ZnPP; format: functional, organism-based
[47] = test system: Rattus norvegicus; assay: Neuroprotective activity in Sprague-Dawley rat model of spinal cord injury assessed as decrease in activated caspase-9 level at 200 mg/kg, ip in presence of Akt inhibitor LY294002; format: functional, organism-based
[48] = test system: Rattus norvegicus; assay: Neuroprotective activity in Sprague-Dawley rat model of spinal cord injury assessed as increase in Akt phosphorylation at 200 mg/kg, ip by western blot analysis in presence of Akt inhibitor LY294002; format: functional, organism-based

Cc1nc(C)c(C)nc1C [LIGUSTRAZINE]
Activity [1]: inactive | Activity [2]: 15% | Activity [3]: Active | Activity [4]: Active | Activity [5]: inactive | Activity [6]: inactive | Activity [7]: Active | Activity [8]: inactive | Activity [9]: inactive | Activity [10]: inactive | Activity [11]: Active | Activity [12]: inactive | Activity [13]: Active | Activity [14]: Active | Activity [15]: Active | Activity [16]: inactive | Activity [17]: inactive | Activity [18]: inactive | Activity [19]: inactive | Activity [20]: Active | Activity [21]: Active | Activity [22]: Active | Activity [23]: inactive | Activity [24]: Active | Activity [25]: Active | Activity [26]: Active | Activity [27]: Active | Activity [28]: inactive | Activity [29]: 16.2% | Activity [30]: inactive | Activity [31]: inactive | Activity [32]: inactive | Activity [33]: Active | Activity [34]: Active | Activity [35]: inactive | Activity [36]: inactive | Activity [37]: inactive | Activity [38]: Active | Activity [39]: inactive | Activity [40]: inactive | Activity [41]: 8% | Activity [42]: inactive | Activity [43]: inactive | Activity [44]: inactive | Activity [45]: inactive | Activity [46]: Active | Activity [47]: inactive | Activity [48]: Active
